Test results reported in BindingDB's records for doi:10.1016/s0960-894x(00)00051-2 (Astrazeneca, 2000).

biological target: T1, Tyrosine-protein kinase JAK3 (Homo sapiens, UniProt P52333); experiment: (§1) In vitro inhibition of Janus kinase 3.
T1 sequence (P52333 whole entry): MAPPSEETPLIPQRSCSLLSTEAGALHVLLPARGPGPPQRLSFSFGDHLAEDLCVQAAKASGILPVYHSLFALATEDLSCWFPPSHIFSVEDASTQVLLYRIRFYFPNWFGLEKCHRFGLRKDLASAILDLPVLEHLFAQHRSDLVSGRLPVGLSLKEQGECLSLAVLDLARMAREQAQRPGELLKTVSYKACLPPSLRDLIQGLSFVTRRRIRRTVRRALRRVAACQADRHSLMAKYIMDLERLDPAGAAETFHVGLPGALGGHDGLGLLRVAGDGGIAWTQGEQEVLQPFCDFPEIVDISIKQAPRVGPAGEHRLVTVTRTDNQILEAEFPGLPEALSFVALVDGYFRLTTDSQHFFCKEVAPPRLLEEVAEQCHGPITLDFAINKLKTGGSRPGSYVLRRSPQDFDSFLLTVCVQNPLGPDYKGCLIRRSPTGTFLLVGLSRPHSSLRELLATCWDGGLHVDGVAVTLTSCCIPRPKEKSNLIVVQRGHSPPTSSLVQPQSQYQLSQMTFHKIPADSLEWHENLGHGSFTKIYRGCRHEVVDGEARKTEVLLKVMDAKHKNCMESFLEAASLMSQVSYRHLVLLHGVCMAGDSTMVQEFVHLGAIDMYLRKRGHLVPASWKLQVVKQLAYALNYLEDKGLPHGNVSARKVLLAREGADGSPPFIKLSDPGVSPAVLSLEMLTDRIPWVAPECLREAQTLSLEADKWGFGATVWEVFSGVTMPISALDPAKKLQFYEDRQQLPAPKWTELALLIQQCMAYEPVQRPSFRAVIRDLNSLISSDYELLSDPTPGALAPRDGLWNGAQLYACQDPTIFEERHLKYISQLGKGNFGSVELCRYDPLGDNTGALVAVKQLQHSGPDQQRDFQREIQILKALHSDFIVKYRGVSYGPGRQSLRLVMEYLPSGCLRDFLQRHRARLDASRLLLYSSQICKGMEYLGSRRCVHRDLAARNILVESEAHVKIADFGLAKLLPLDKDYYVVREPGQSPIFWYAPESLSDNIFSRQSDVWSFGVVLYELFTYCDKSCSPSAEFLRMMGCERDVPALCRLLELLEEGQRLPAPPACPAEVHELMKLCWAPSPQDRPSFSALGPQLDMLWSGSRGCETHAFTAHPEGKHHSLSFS

IC50 [µM]	SMILES
> 1000	O=C(CCCN1CCOCC1)c1ccc2ccccc2c1
> 1000	O=C(CCNCc1ccccc1)c1ccc2ccccc2c1

Second part, the compound before the results:

SMILES	IC50 [µM]
CC(C)(CN1CCOCC1)C(=O)c1ccc2ccccc2c1	> 1000
O=c1c(CN2CCOCC2)coc2cc3ccccc3cc12	> 1000
ON=C(CCN1CCOCC1)c1ccc2ccccc2c1	> 1000

biological target: T1, Tyrosine-protein kinase JAK3; experiment: ChEBML_91954; excerpt: as §1

IC50 [µM]	SMILES
0.63	CN(C)CCC(=O)c1ccc2ccccc2c1
501	C=CC(O)c1ccc2ccccc2c1 (stereo not drawn)
2	O=C(CCN1CCOCC1)c1ccc2ccccc2c1
0.794	O=C(CCN1CCCCCC1)c1ccc2ccccc2c1
0.501	O=C(CCN1CCOCC1)c1ccc2ccc3ccccc3c2c1
0.0794	C=CC(=O)c1ccc2ccccc2c1 [Thr1 inhibitor, 1]

More lines, now with the values behind:

SMILES	IC50 [µM]
N#C/C(=C\c1ccc(O)c(O)c1)C(=O)NCc1ccccc1	12.6
COc1ccc2cc(C(=O)CCN3CCOCC3)ccc2c1	15.8
O=C(C=Cc1ccccc1Cl)CCN1CCOCC1	12.6
CC(=Cc1ccccc1)C(=O)CCN1CCOCC1	12.6
COc1cc2ccc(C(=O)CCN3CCOCC3)cc2cc1OC	200
O=C(CCN1CCOCC1)c1cccc2ccccc12	3.16
CC(C)N(CCC(=O)c1ccc2ccccc2c1)Cc1ccccc1	0.0794
